Consider 33 compounds from BindingDB's records for doi:10.1021/jm970389+ (Abbott Laboratories, 1998).

The structures appear in SMILES notation. Bounds are passed on as bounds.

The test is described as follows: Binding potency against Platelet activating factor (PAF) receptor using [3H]C18-PAF as radioligand on rabbit platelet membranes.
`COC(=O)c1cccc2c1c(C(=O)c1ccc(Cn3c(C)nc4cnccc43)cc1)cn2C(=O)N1CCCC1` [3-[4-(2-Methyl-imidazo[4,5-c]pyridin-1-ylmethyl)-benzoyl]-1-(pyrrolidine-1-carbonyl)-1H-indole-4-carboxylic acid methyl ester] came in with a Ki of 11 nM. In other words, the double-digit nanomolar range. Next, `Cc1nc2cnccc2n1Cc1ccc(C(=O)c2cn(C(=O)N(C)C)c3cccc(C(=O)N(C)C)c23)cc1` [3-[4-(2-Methyl-imidazo[4,5-c]pyridin-1-ylmethyl)-benzoyl]-indole-1,4-dicarboxylic acid bis-dimethylamide]: 11 nM; `Cc1nc2cnccc2n1Cc1ccc(C(=O)c2cn(C(=O)N(C)C)c3ccccc23)cc1` [3-[4-(2-Methyl-imidazo[4,5-c]pyridin-1-ylmethyl)-benzoyl]-indole-1-carboxylic acid dimethylamide]: 6.8 nM. Next, `COC(=O)c1cccc2c1c(C(=O)c1ccc(Cn3c(C)nc4c(Cl)nccc43)cc1)cn2C(=O)N(C)C` [3-[4-(4-Chloro-2-methyl-imidazo[4,5-c]pyridin-1-ylmethyl)-benzoyl]-1-dimethylcarbamoyl-1H-indole-4-carboxylic acid methyl ester]: 1.8 nM. In turn, `Cc1nc2cnccc2n1CCCCCC(=O)c1cn(C(=O)N(C)C)c2cccc(-c3ccc(F)cc3)c12` [4-(4-Fluoro-phenyl)-3-[6-(2-methyl-imidazo[4,5-c]pyridin-1-yl)-hexanoyl]-indole-1-carboxylic acid dimethylamide] registered a Ki of 3.2 nM.

On to `Cc1nc2cnccc2n1Cc1ccc(C(=O)c2cn(C(=O)N(C)C)c3cccc(NC(=O)c4ccccc4)c23)cc1` [4-Benzoylamino-3-[4-(2-methyl-imidazo[4,5-c]pyridin-1-ylmethyl)-benzoyl]-indole-1-carboxylic acid dimethylamide], for which the inhibition constant (Ki) is 2 nM. The result for `Cc1nc2cnccc2n1Cc1ccc(C(=O)c2cn(C(=O)N(C)C)c3cccc(Br)c23)cc1` [4-Bromo-3-[4-(2-methyl-imidazo[4,5-c]pyridin-1-ylmethyl)-benzoyl]-indole-1-carboxylic acid dimethylamide] reads 11 nM. `Cc1nc2ncccc2n1Cc1ccc(C(=O)c2cn(C(=O)N(C)C)c3cccc(Cl)c23)cc1` [4-Chloro-3-[4-(2-methyl-imidazo[4,5-b]pyridin-1-ylmethyl)-benzoyl]-indole-1-carboxylic acid dimethylamide]: the affinity corresponds to a Ki of 0.9 nM.

Turning to `Cc1nc2cnccc2n1Cc1ccc(C(=O)c2cn(C(=O)N(C)C)c3cccc(Cl)c23)cc1` [4-Chloro-3-[4-(2-methyl-imidazo[4,5-c]pyridin-1-ylmethyl)-benzoyl]-indole-1-carboxylic acid dimethylamide], the affinity corresponds to a Ki of 5.4 nM.

For the compound `CCc1cccc2c1c(C(=O)c1ccc(Cn3c(C)nc4cnccc43)cc1)cn2C(=O)N(C)C` [4-Ethyl-3-[4-(2-methyl-imidazo[4,5-c]pyridin-1-ylmethyl)-benzoyl]-indole-1-carboxylic acid dimethylamide], the Ki was 0.91 nM.

Regarding `C#Cc1cccc2c1c(C(=O)c1ccc(Cn3c(C)nc4cnccc43)c(F)c1)cn2C(=O)NC` [4-Ethynyl-3-[3-fluoro-4-(2-methyl-imidazo[4,5-c]pyridin-1-ylmethyl)-benzoyl]-indole-1-carboxylic acid methylamide], the affinity corresponds to a Ki of 0.63 nM.

Compound `C#Cc1cccc2c1c(C(=O)c1ccc(Cn3c(C)nc4cnccc43)cc1)cn2C(=O)N(C)C` [4-Ethynyl-3-[4-(2-methyl-imidazo[4,5-c]pyridin-1-ylmethyl)-benzoyl]-indole-1-carboxylic acid dimethylamide] gave a Ki of 1.3 nM. For the compound `C#Cc1cccc2c1c(C(O)c1ccc(Cn3c(C)nc4cnccc43)c(F)c1)cn2C(=O)N(C)C` (stereo not drawn) [4-Ethynyl-3-{[3-fluoro-4-(2-methyl-imidazo[4,5-c]pyridin-1-ylmethyl)-phenyl]-hydroxy-methyl}-indole-1-carboxylic acid dimethylamide], the inhibitory constant (Ki) is 1.5 nM. `Cc1nc2cnccc2n1Cc1ccc(C(=O)c2cn(C(=O)N(C)C)c3cccc(F)c23)cc1` [4-Fluoro-3-[4-(2-methyl-imidazo[4,5-c]pyridin-1-ylmethyl)-benzoyl]-indole-1-carboxylic acid dimethylamide] displayed an inhibition constant Ki of 5.1 nM. This Ki lies about 3.4-fold higher than the previous one. `Cc1nc2cnccc2n1Cc1ccc(C(=O)c2cn(C(=O)N(C)C)c3cccc(O)c23)cc1` [4-Hydroxy-3-[4-(2-methyl-imidazo[4,5-c]pyridin-1-ylmethyl)-benzoyl]-indole-1-carboxylic acid dimethylamide] had an inhibitory constant (Ki) of 6.1 nM. Next, `COC(=O)c1[nH]c2cccc(OC)c2c1C(=O)c1ccc(Cn2c(C)nc3cnccc32)cc1` [4-Methoxy-3-[4-(2-methyl-imidazo[4,5-c]pyridin-1-ylmethyl)-benzoyl]-1H-indole-2-carboxylic acid methyl ester]: 0.51 nM; `COc1cccc2c1c(C(=O)c1ccc(Cn3c(C)nc4cnccc43)cc1)cn2C(=O)N(C)C` [4-Methoxy-3-[4-(2-methyl-imidazo[4,5-c]pyridin-1-ylmethyl)-benzoyl]-indole-1-carboxylic acid dimethylamide]: 2 nM.

The compound `Cc1cccc2c1c(C(=O)c1ccc(Cn3c(C)nc4cnccc43)cc1)cn2C(=O)N(C)C` [4-Methyl-3-[4-(2-methyl-imidazo[4,5-c]pyridin-1-ylmethyl)-benzoyl]-indole-1-carboxylic acid dimethylamide] showed a Ki of 0.82 nM. The result for `Cc1cccc2c1c(C(=O)CN1CCC(n3c(C)nc4cnccc43)CC1)cn2C(=O)N(C)C` [4-Methyl-3-{2-[4-(2-methyl-imidazo[4,5-c]pyridin-1-yl)-piperidin-1-yl]-acetyl}-indole-1-carboxylic acid dimethylamide] reads 2 nM; that for `Cc1nc2cnccc2n1Cc1ccc(C(=O)c2cn(C(=O)N(C)C)c3ccc(-c4ccc(F)cc4)cc23)cc1` [5-(4-Fluoro-phenyl)-3-[4-(2-methyl-imidazo[4,5-c]pyridin-1-ylmethyl)-benzoyl]-indole-1-carboxylic acid dimethylamide], 190 nM; that for `Cc1nc2cnccc2n1CCCN(C)CC(=O)c1cn(C(=O)N(C)C)c2cc(-c3ccc(F)cc3)ccc12` [6-(4-Fluoro-phenyl)-3-(2-{methyl-[3-(2-methyl-imidazo[4,5-c]pyridin-1-yl)-propyl]-amino}-acetyl)-indole-1-carboxylic acid dimethylamide], 140 nM. The result for `Cc1nc2cnccc2n1CC(=O)c1cn(C(=O)N(C)C)c2cc(-c3ccc(F)cc3)ccc12` [6-(4-Fluoro-phenyl)-3-[2-(2-methyl-imidazo[4,5-c]pyridin-1-yl)-acetyl]-indole-1-carboxylic acid dimethylamide] reads more than 1000 nM; that for `Cc1nc2cnccc2n1Cc1cccc(C(=O)c2cn(C(=O)N(C)C)c3cc(-c4ccc(F)cc4)ccc23)c1` [6-(4-Fluoro-phenyl)-3-[3-(2-methyl-imidazo[4,5-c]pyridin-1-ylmethyl)-benzoyl]-indole-1-carboxylic acid dimethylamide], 180 nM. In turn, `Cc1nc2cnccc2n1-c1ccc(C(=O)c2cn(C(=O)N(C)C)c3cc(-c4ccc(F)cc4)ccc23)cc1` [6-(4-Fluoro-phenyl)-3-[4-(2-methyl-imidazo[4,5-c]pyridin-1-yl)-benzoyl]-indole-1-carboxylic acid dimethylamide] showed a Ki of 260 nM. The result for `Cc1nc2cnccc2n1C1CCN(C(=O)c2cn(C(=O)N(C)C)c3cc(-c4ccc(F)cc4)ccc23)CC1` [6-(4-Fluoro-phenyl)-3-[4-(2-methyl-imidazo[4,5-c]pyridin-1-yl)-piperidine-1-carbonyl]-indole-1-carboxylic acid dimethylamide] reads 3.4 nM; that for `Cc1nc2cnccc2n1CN1CCN(S(=O)(=O)c2cn(C(=O)N(C)C)c3cc(-c4ccc(F)cc4)ccc23)CC1` [6-(4-Fluoro-phenyl)-3-[4-(2-methyl-imidazo[4,5-c]pyridin-1-ylmethyl)-piperazine-1-sulfonyl]-indole-1-carboxylic acid dimethylamide], 1.2 nM. Consider `Cc1nc2cnccc2n1CC1CCN(C(=O)c2cn(C(=O)N(C)C)c3cc(-c4ccc(F)cc4)ccc23)CC1` [6-(4-Fluoro-phenyl)-3-[4-(2-methyl-imidazo[4,5-c]pyridin-1-ylmethyl)-piperidine-1-carbonyl]-indole-1-carboxylic acid dimethylamide], for which the Ki stood at 2.5 nM. The result for `Cc1nc2cnccc2n1Cc1csc(C(=O)c2cn(C(=O)N(C)C)c3cc(-c4ccc(F)cc4)ccc23)n1` [6-(4-Fluoro-phenyl)-3-[4-(2-methyl-imidazo[4,5-c]pyridin-1-ylmethyl)-thiazole-2-carbonyl]-indole-1-carboxylic acid dimethylamide] reads 39 nM.

With `Cc1nc2ccncc2n1Cc1ccc(C(=O)c2cn(C(=O)N(C)C)c3cc(-c4ccc(F)cc4)ccc23)cc1` [6-(4-Fluoro-phenyl)-3-[4-(2-methyl-imidazo[4,5-c]pyridin-3-ylmethyl)-benzoyl]-indole-1-carboxylic acid dimethylamide], affinity was put at a Ki of 610 nM.

`Cc1nc2ccn(Cc3ccc(C(=O)c4cn(C(=O)N(C)C)c5cc(-c6ccc(F)cc6)ccc45)cc3)cc-2n1` [6-(4-Fluoro-phenyl)-3-[4-(2-methyl-imidazo[4,5-c]pyridin-5-ylmethyl)-benzoyl]-indole-1-carboxylic acid dimethylamide]: the Ki was more than 1000 nM. The result for `Cc1nc2cnccc2n1CCN1CCN(S(=O)(=O)c2cn(C(=O)N(C)C)c3cc(-c4ccc(F)cc4)ccc23)CC1` [6-(4-Fluoro-phenyl)-3-{4-[2-(2-methyl-imidazo[4,5-c]pyridin-1-yl)-ethyl]-piperazine-1-sulfonyl}-indole-1-carboxylic acid dimethylamide] reads 53 nM; that for `COC(=O)c1cc(Br)cc2c1c(C(=O)c1ccc(Cn3c(C)nc4cnccc43)cc1)cn2C(=O)N(C)C` [6-Bromo-1-dimethylcarbamoyl-3-[4-(2-methyl-imidazo[4,5-c]pyridin-1-ylmethyl)-benzoyl]-1H-indole-4-carboxylic acid methyl ester], 1.4 nM.

The compound `C#Cc1cccc2[nH]cc(C(=O)c3ccc(Cn4c(C)nc5cnccc54)c(F)c3)c12` [(4-Ethynyl-1H-indol-3-yl)-[3-fluoro-4-(2-methyl-imidazo[4,5-c]pyridin-1-ylmethyl)-phenyl]-methanone] yielded a Ki of 2.2 nM. This Ki lies about 1.6-fold higher than the previous one.
